From paper PMC6757278, “Structural Basis for Inhibition of Human Primase by Arabinofuranosyl Nucleoside Analogues Fludarabine and Vidarabine” (ACS Chemical Biology, 2019) come the findings set out here.

Experiment [1] deals with T1, Pri1 (full-length, 1 to 420) (Homo sapiens, UniProt P49642).
T1 construct: gene PRIM1; full-length catalytic subunit alone (1-420), His6 tag cleaved by TEV protease, E. coli Rosetta2 (DE3), pRSFDuet-1
T1 sequence (P49642 1-420): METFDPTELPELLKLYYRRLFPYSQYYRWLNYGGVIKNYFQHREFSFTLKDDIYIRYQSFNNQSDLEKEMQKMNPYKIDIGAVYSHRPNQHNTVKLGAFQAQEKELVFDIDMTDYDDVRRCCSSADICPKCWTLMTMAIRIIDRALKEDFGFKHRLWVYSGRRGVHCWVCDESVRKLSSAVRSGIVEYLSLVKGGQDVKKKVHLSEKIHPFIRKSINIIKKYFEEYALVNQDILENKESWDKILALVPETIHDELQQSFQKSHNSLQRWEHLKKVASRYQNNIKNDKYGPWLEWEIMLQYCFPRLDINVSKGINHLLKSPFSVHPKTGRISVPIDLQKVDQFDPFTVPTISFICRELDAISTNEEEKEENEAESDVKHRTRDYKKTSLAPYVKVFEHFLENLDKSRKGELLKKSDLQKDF
The experiment is described as follows: fluorescence polarization competition against 6FAM-ATP. Format: binding. As to conditions: read-out: K1/2. On the technique in general: Polarisation of emitted light reports the rotation of a fluorescent probe.

The target of experiment [2] is T1, Pri1 (full-length, 1 to 420). Put plainly: fluorescence anisotropy direct titration. Format: binding.

Take `Nc1nc(F)nc2c1ncn2[C@@H]1O[C@H](COP(=O)(O)OP(=O)(O)OP(=O)(O)O)[C@@H](O)[C@H]1O` [2F-ATP]: in experiment [1], the IC50 is 7.2 µM. Turning to `Nc1ncnc2c1ncn2[C@H]1C[C@H](O)[C@@H](COP(=O)(O)OP(=O)(O)OP(=O)(O)O)O1` [dATP], in experiment [1], the IC50 came out at 3.3 µM. For the molecule `Nc1ncnc2c1ncn2[C@@H]1O[C@H](COP(=O)(O)OP(=O)(O)OP(=O)(O)O)[C@@H](O)[C@H]1O` [ATP], in experiment [1], the IC50 turned out to be 7.5 µM. With `Nc1ncnc2c1ncn2[C@@H]1O[C@H](COP(=O)(O)OP(=O)(O)OP(=O)(O)O)[C@@H](O)[C@@H]1O` [vidarabine-TP], in experiment [1], the IC50 stood at 1.5 µM.

As to `Nc1nc(F)nc2c1ncn2[C@@H]1O[C@H](COP(=O)(O)OP(=O)(O)OP(=O)(O)O)[C@@H](O)[C@@H]1O` [fludarabine-TP], the IC50 in experiment [1] is 1.1 µM. For orientation: Kd means the equilibrium constant for the complex coming apart. Read a low Kd as tighter binding. As to `O=C(NCCCCCCNc1ncnc2c1ncn2[C@@H]1O[C@H](COP(=O)(O)OP(=O)(O)OP(=O)(O)O)[C@@H](O)[C@H]1O)c1ccc2c(c1)C1(OC2=O)c2ccc(O)cc2Oc2cc(O)ccc21` [6FAM-ATP], the Kd in experiment [2] worked out at 0.41 µM.
